Laboratory results: US20250333421A1, “PYRIDAZINES OR 1,2,4-TRIAZINES SUBSTITUTED BY SPIROCYCLIC AMINES” (Janssen Pharmaceutica NV, priority 2021, published 2025)

Legend:
MOLM14 cells = assay: Proliferation assay (spheroid assay) in MOLM14; format: cell-based; details: Homo sapiens, MOLM-14, 192 h; MOLM14 (MLL-AF9), 8 days, confluence as measure of spheroid size; read-out: spheroid assay_OneTime MOLM14 IC50
Experimental: (§1) The anti-proliferative effect of menin/MLL protein/protein interaction inhibitor test compounds was assessed in human leukemia cell lines. The cell line MOLM14 harbors a MLL translocation and expresses the MLL fusion proteins MLL-AF9, respectively, as well as the wildtype protein from the second allele. […] KO-52 was used as a control cell line containing two MLL (KMT2A) wildtype alleles in order to exclude compounds that display general cytotoxic effects.
MOLM14 cells were cultured in RPMI-1640 (Sigma Aldrich) supplemented with 10% heat-inactivated fetal bovine serum (HyClone), 2 mM L-glutamine (Sigma Aldrich) and 50 µg/ml gentamycin (Gibco). KO-52 cell lines were propagated in alpha-MEM (Sigma Aldrich) supplemented with 20% heat-inactivated fetal bovine serum (HyClone), 2 mM L-glutamine (Sigma Aldrich) and 50 µg/ml gentamycin (Gibco).
In order to assess the anti-proliferative effects, 200 MOLM14 cells, or 300 KO-52 cells were seeded in 200 μl media per well in 96-well round bottom, ultra-low attachment plates (Costar, catalogue number 7007). Cell seeding numbers were chosen based on growth curves to ensure linear growth throughout the experiment. Test compounds were added at different concentrations and the DMSO content was normalized to 0.3%. Cells were incubated for 8 days at 37° C. and 5% CO2. Spheroid like growth was measured in real-time by live-cell imaging (IncuCyteZOOM, Essenbio, 4× objective) acquiring images at day 8. Confluence (%) as a measure of spheroid size was determined using an integrated analysis tool.
In order to determine the effect of the test compounds over time, the confluence in each well as a measure of spheroid size, was calculated. Confluence of the highest dose of a reference compound was used as baseline for the LC (Low control) and the confluence of DMSO treated cells was used as 0% cytotoxicity (High Control, HC).
Absolute IC50 values were calculated as percent change in confluence as follows:
LC=Low Control: cells treated with e.g. 1 μM of the cytotoxic agent staurosporin, or e.g. cells treated with a high concentration of an alternative reference compound
GraphPad Prism (version 7.00) was used to calculate the IC50. Dose-response equation was used for the plot of % Effect vs Log10 compound concentration with a variable slope and fixing the maximum to 100% and the minimum to 0%.

KO-52 cells = assay: Proliferation assay (spheroid assay) in KO-52 control cell line; format: cell-based; details: Homo sapiens, 192 h; KO-52 (MLL wildtype control), 8 days, confluence as measure of spheroid size; read-out: spheroid assay_OneTime KO-52 IC50
Experimental: as §1
MOLM14 cells were cultured in RPMI-1640 (Sigma Aldrich) supplemented with 10% heat-inactivated fetal bovine serum (HyClone), 2 mM L-glutamine (Sigma Aldrich) and 50 µg/ml gentamycin (Gibco). […]
In order to assess the anti-proliferative effects, 200 MOLM14 cells, or 300 KO-52 cells were seeded in 200 μl media per well in 96-well round bottom, ultra-low attachment plates (Costar, catalogue number 7007). […] Spheroid like growth was measured in real-time by live-cell imaging (IncuCyteZOOM, Essenbio, 4× objective) acquiring images at day 8. Confluence (%) as a measure of spheroid size was determined using an integrated analysis tool.
In order to determine the effect of the test compounds over time, the confluence in each well as a measure of spheroid size, was calculated. […]
Absolute IC50 values were calculated as percent change in confluence as follows: […]

Menin/MLL = target: T1, Menin/MLL (Homo sapiens, UniProt O00255, T541A); assay: Menin/MLL homogenous time-resolved fluorescence (HTRF) assay; format: binding; details: 30 min incubation of test compound with terbium chelate-labeled menin; FITC-MBM1 peptide
T1 construct: Menin (a.a 1-610-6xhis tag)
T1 sequence (O00255 with tags, fused parts or gaps T541A): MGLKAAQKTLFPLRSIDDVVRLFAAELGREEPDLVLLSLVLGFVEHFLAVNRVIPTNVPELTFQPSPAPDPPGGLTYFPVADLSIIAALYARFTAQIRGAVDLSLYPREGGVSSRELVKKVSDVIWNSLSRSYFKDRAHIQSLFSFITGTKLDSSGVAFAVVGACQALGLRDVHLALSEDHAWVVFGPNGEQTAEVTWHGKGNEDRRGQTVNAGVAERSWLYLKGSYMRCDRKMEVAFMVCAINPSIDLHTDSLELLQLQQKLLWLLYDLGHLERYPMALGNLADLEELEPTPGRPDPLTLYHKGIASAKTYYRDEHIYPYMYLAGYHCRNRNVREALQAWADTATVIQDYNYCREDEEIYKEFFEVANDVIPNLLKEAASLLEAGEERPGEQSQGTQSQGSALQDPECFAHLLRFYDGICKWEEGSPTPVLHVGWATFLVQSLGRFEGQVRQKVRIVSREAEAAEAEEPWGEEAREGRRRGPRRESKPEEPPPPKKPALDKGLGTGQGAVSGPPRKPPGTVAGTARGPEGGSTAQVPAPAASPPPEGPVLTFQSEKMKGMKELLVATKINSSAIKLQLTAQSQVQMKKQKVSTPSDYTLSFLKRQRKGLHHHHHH
Experimental: 1) Menin/MLL homogenous time-resolved fluorescence (HTRF) assay
To an untreated, white 384-well microtiter plate was added 40 nL 200X test compound in DMSO and 4 μL 2X terbium chelate-labeled menin (vide infra for preparation) in assay buffer (40 mM Tris-HCl, pH 7.5, 50 mM NaCl, 1 mM DTT (dithiothreitol) and 0.05% Pluronic F-127). After incubation of test compound and terbium chelate-labeled menin for 30 min at ambient temperature, 4 μL 2X FITC-MBM1 peptide (FITC-β-alanine-SARWRFPARPGT-NH2 (SEQ ID NO: 2)) (“FITC” means fluorescein isothiocyanate) in assay buffer was added, the microtiter plate centrifuged at 1000 rpm for 1 min and the assay mixtures incubated for 15 min at ambient temperature. The relative amount of menin FITC--MBM1 complex present in an assay mixture is determined by measuring the homogenous time-resolved fluorescence (HTRF) of the terbium/FITC donor/acceptor fluorphore pair using an EnVision microplate reader (ex. 337 nm/terbium em. 490 nm/FITC em. 520 nm) at ambient temperature. The degree of fluorescence resonance energy transfer (the HTRF value) is expressed as the ratio of the fluorescence emission intensities of the FITC and terbium fluorophores (F^em 520 nm/F^em 490 nm). The final concentrations of reagents in the binding assay are 200 pM terbium chelate-labeled menin, 75 nM FITC-MBM1 peptide and 0.5% DMSO in assay buffer. Dose-response titrations of test compounds are conducted using an 11 point, four-fold serial dilution scheme, starting typically at 10 μM.
Compound potencies were determined by first calculating % inhibition at each compound concentration according to equation 1: […]
Where LC and HC are the HTRF values of the assay in the presence or absence of a saturating concentration of a compound that competes with FITC-MBM1 for binding to menin, and HTRF^compound is the measured HTRF value in the presence of the test compound. HC and LC HTRF values represent an average of at least 10 replicates per plate.
Where Bottom and Top are the lower and upper asymptotes of the dose-response curve, respectively, IC50 is the concentration of compound that yields 50% inhibition of signal and h is the Hill coefficient. IC50 values below 0.1 nM in the HTRF assay were reported as 0.1 nM in the Table below (detection limit).
Preparation of Terbium cryptate labeling of Menin: Menin (a.a 1-610-6xhis tag, 2.3 mg/mL in 20 mM Hepes (2-[4-(2-Hydroxyethyl)-1-piperazinyl]ethane sulfonic acid), 80 mM NaCl, 5 mM DTT (Dithiothreitol), pH 7.5) was labeled with terbium cryptate as follows. 200 μg of Menin was buffer exchanged into lx Hepes buffer. 6.67 μM Menin was incubated with 8-fold molar excess NHS (N-hydroxysuccinimide)-terbium cryptate for 40 minutes at room temperature. Half of the labeled protein was purified away from free label by running the reaction over a NAP5 column with elution buffer (0.1M Hepes, pH 7+0.1% BSA (bovine serum albumin)). The other half was eluted with 0.1 M phosphate buffered saline (PBS), pH7. 400 μl of eluent was collected for each, aliquoted and frozen at −80° C. The final concentration of terbium-labeled Menin protein was 115 μg/mL in Hepes buffer and 85 μg/mL in PBS buffer, respectively.

CCN(C(=O)c1cc(F)ccc1Oc1nncnc1N1CCC2(C1)CN(C(CCCN(C)CCSC)C(C)C)C2)C(C)C (single isomer, unassigned) [Compound 1]
IC50 (MOLM14 cells): 50 nM
IC50 (KO-52 cells): 11900 nM

CCN(C(=O)c1cc(F)ccc1Oc1nncnc1N1CCC2(C1)CN(C(CCCNCCSC)C(C)C)C2)C(C)C (single isomer, unassigned) [Compound 3]
IC50 (MOLM14 cells): 5 nM

CCN(C(=O)c1cc(F)ccc1Oc1nncnc1N1CCC2(C1)CN(C(CCCNCCOC(F)(F)F)C(C)C)C2)C(C)C (single isomer, unassigned) [Compound 4]
IC50 (MOLM14 cells): 21 nM
IC50 (Menin/MLL): 0.208 nM

CCN(C(=O)c1cc(F)ccc1Oc1nncnc1N1CCC2(C1)CN(C(CCCN(C)CCOCCN)C(C)C)C2)C(C)C (single isomer, unassigned) [Compound 5]
IC50 (MOLM14 cells): 220 nM
IC50 (Menin/MLL): 0.11 nM

CCN(C(=O)c1cc(F)ccc1Oc1nncnc1N1CCC2(C1)CN(C(CCCN(C)CCOCCCCN)C(C)C)C2)C(C)C (single isomer, unassigned) [Compound 6]
IC50 (MOLM14 cells): 100 nM

CCN(C(=O)c1cc(F)ccc1Oc1nncnc1N1CCC2(C1)CN(C(CCCNCCOC(F)F)C(C)C)C2)C(C)C (single isomer, unassigned) [Compound 7]
IC50 (MOLM14 cells): 7 nM
IC50 (Menin/MLL): 0.121 nM

CCN(C(=O)c1cc(F)ccc1Oc1nncnc1N1CCC2(C1)CN(C(CCCN(C)CCOC(F)F)C(C)C)C2)C(C)C (single isomer, unassigned) [Compound 8]
IC50 (MOLM14 cells): 16 nM
IC50 (Menin/MLL): 0.182 nM

COCCN(C)CCC[C@H](C(C)C)N1CC2(CCN(c3ncnnc3Oc3ccc(F)cc3C(=O)N(CCN)C(C)C)C2)C1 (single isomer, unassigned) [Compound 9]
IC50 (MOLM14 cells): 190 nM

COCCN(C)CCC[C@H](C(C)C)N1CC2(CCN(c3ncnnc3Oc3ccc(F)cc3C(=O)N(CCCCN)C(C)C)C2)C1 (single isomer, unassigned) [Compound 10]
IC50 (MOLM14 cells): 460 nM

C#CCN(C)CCCC(C(C)C)N1CC2(CCN(c3ncnnc3Oc3ccc(F)cc3C(=O)N(CC)C(C)C)C2)C1 (single isomer, unassigned) [Compound 11]
IC50 (MOLM14 cells): 60 nM

C=CCN(C)CCCC(C(C)C)N1CC2(CCN(c3ncnnc3Oc3ccc(F)cc3C(=O)N(CC)C(C)C)C2)C1 (single isomer, unassigned) [Compound 12]
IC50 (MOLM14 cells): 29 nM

CCN(C(=O)c1cc(F)ccc1Oc1nncnc1N1CCC2(C1)CN(C(CCCN(C)CCOC)C(C)(C)C)C2)C(C)C (single isomer, unassigned) [Compound 13a]
IC50 (Menin/MLL): 1.97 nM

CCN(C(=O)c1cc(F)ccc1Oc1nncnc1N1CCC2(C1)CN(C(CCCN(C)CCOC)C(C)(C)C)C2)C(C)C (single isomer, unassigned) [Compound 13b]
IC50 (MOLM14 cells): 21 nM

CCN(CC(C)O)C(=O)c1cc(F)ccc1Oc1nncnc1N1CCC2(C1)CN(C(CCCN(C)CCOC)C(C)C)C2 (single isomer, unassigned) [Compound 16]
IC50 (Menin/MLL): 2.97 nM

CCN(CC(C)O)C(=O)c1cc(F)ccc1Oc1nncnc1N1CCC2(C1)CN(C(CCCN(C)CCOC)C(C)C)C2 (single isomer, unassigned) [Compound 17]
IC50 (Menin/MLL): 79.3 nM

CCN(C[C@@H](C)O)C(=O)c1cc(F)ccc1Oc1nncnc1N1CCC2(C1)CN([C@H](CCCN(C)CCOC)C(C)C)C2 (single isomer, unassigned) [Compound 18]
IC50 (Menin/MLL): 35.5 nM

CCN(C(=O)c1cc(F)ccc1Oc1nncnc1N1CCC2(C1)CN([C@H](CCN(C)CCS(N)(=O)=O)C(C)C)C2)C(C)C (single isomer, unassigned) [Compound 20]
IC50 (MOLM14 cells): 430 nM
IC50 (Menin/MLL): 0.29 nM

CC(C)N(C(=O)c1cc(F)ccc1Oc1nncnc1N1CCC2(C1)CN(C(CC(O)CN(C)C)C(C)(C)C)C2)C(C)C (single isomer, unassigned) [Compound 22]
IC50 (Menin/MLL): 18.2 nM

CC(C)N(C(=O)c1cc(F)ccc1Oc1nncnc1N1CCC2(C1)CN(C(CC(O)CN(C)C)C(C)(C)C)C2)C(C)C (single isomer, unassigned) [Compound 23]
IC50 (Menin/MLL): 4.57 nM

CCN(C)C[C@H](O)C[C@@H](N1CC2(CCN(c3ncnnc3Oc3ccc(F)cc3C(=O)N(CC)C(C)C)C2)C1)C(C)(C)C (single isomer, unassigned) [Compound 24]
IC50 (Menin/MLL): 35.5 nM

CCN(C)C[C@@H](O)C[C@H](N1CC2(CCN(c3ncnnc3Oc3ccc(F)cc3C(=O)N(CC)C(C)C)C2)C1)C(C)(C)C (single isomer, unassigned) [Compound 25]
IC50 (Menin/MLL): 6.46 nM

CCN(CC(C)O)C(=O)c1cc(F)ccc1Oc1nncnc1N1CCC2(C1)CN(C(CCCN(C)CCOC)C(C)C)C2 (stereo not drawn) [Compound 14]
IC50 (MOLM14 cells): > 940 nM
IC50 (Menin/MLL): 6.66 nM

COCCN(C)CCC[C@H](C(C)C)N1CC2(CCN(c3ncnnc3Oc3ccc(F)cc3C(=O)N(CCNC(C)=O)C(C)C)C2)C1 [Compound 15]
IC50 (MOLM14 cells): 470 nM
IC50 (Menin/MLL): 0.331 nM

COCCN(C)CCC[C@H](C(C)C)N1CC2(CCN(c3ncnnc3Oc3ccc(F)cc3C(=O)N(CCO)C(C)C)C2)C1 [Compound 19]
IC50 (MOLM14 cells): 32 nM

CCN(C(=O)c1cc(F)cc(Br)c1Oc1nncnc1N1CCC2(C1)CN([C@H](CCCN(C)CCOC)C(C)C)C2)C(C)C [Compound 21]
IC50 (Menin/MLL): 13.7 nM
